Assays:
Assay in all cases: Substrate Binding Assay
Settings in all cases: pH 8
[1] = target: T1, Probable salicylate monooxygenase (Rhodococcus jostii (strain RHA1), UniProt Q0SFK6)
T1 sequence (Q0SFK6 whole entry): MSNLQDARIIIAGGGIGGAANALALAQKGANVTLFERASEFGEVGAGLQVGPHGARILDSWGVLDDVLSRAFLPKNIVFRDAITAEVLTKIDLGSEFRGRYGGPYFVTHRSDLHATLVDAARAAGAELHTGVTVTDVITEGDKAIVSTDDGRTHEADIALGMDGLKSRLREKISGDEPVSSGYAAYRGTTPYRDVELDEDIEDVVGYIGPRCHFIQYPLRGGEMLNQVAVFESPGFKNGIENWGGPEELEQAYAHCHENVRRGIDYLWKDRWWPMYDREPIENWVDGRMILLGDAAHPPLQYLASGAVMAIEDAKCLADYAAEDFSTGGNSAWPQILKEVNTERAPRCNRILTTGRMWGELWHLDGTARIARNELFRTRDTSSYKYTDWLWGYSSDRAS
Method: (§1) The interaction of 3HB6H (25 uM) with substrate analogs was studied in 50 mM Tris-SO4 (pH 8.0). Dissociation constants (Kd) of enzyme-substrate complexes were determined from flavin absorption difference spectra essentially as described elsewhere [Montersino et al., Biochim. Biophys. Acta, 1824:433-442].

[2] = target: Probable salicylate monooxygenase [H213A] (Rhodococcus jostii (strain RHA1), UniProt Q0SFK6, H213A)
Method: as §1

[3] = target: Probable salicylate monooxygenase [Y105F] (Rhodococcus jostii (strain RHA1), UniProt Q0SFK6, Y105F)
Method: as §1

O=C(O)c1cccc(O)c1
Kd [1]: 48 µM | Kd [2]: 61 µM | Kd [3]: 644 µM
